The text below walks through data of patent US9809623B2, “α4β7 peptide monomer and dimer antagonists” (Protagonist Therapeutics, Inc., priority 2014, dated 2017).

Data set [1] can be described thus: Simulated Intestinal Fluid (SIF) Stability Assay. The data set is classed as in vitro ADME, porcine. The settings on record: pig, pH 6.5, Table 3-B. The procedure:
Studies were carried out in simulated intestinal fluid (SIF) to evaluate intestinal stability of the peptide molecules of the instant invention. To prepare the SIF reagent, blank FASSIF was prepared by dissolving 0.348 g NaOH, 3.954 g sodium phosphate monobasic monohydrate and 6.186 g NaCl in a final volume of 1 liter water (final pH=6.5). To this solution, 24 g porcine pancreatin (Sigma catalog P7545) was added and stirred for 30 minutes (final pancreatin concentration is 2.4%). The solution was filtered through a cheese cloth and a No. 1 Whatman filter, and 10 ml aliquots were stored at −70° C. To run the reaction, a 10 ml aliquot was thawed at 37° C., and 125 ul aliquots were removed and mixed with an equal volume of blank FASSIF. The peptide stock solution (10 mM in 100% DMSO) was diluted 75-fold in blank FASSIF. A 50 μl aliquot of the diluted peptide was combined with 125 μl pancreatin (2.4%) and 125 μl blank FASSIF to yield final concentrations of 1% pancreatin and 22 μM peptide. The reactions were incubated at 37° C., and at various time points 50 μl aliquots were removed and added to 200 μl of quench solution containing 50% acetonitrile, 50% methanol, 5% formic acid, and 1 μg/ml internal standard. The quenched samples were centrifuged at 10,000 rpm for 10 minutes, and the supernatants were analyzed by LCMS/MS. The percent remaining at each time point was calculated based on the peak area response ratio of test to compound to internal standard. Half-lives were calculated by fitting to a first-order exponential decay equation using GraphPad.

A further data set has as its target α4β7 (Homo sapiens, UniProt P13612+P26010). Kind of data set: α4β7-MAdCAM Cell Adhesion Assay (RPMI 8866 human cells). It counts as cell-based. Also on record: host or cells: RPMI 8866 human B lymphoblastoid cells. The settings on record: Table 3-B, Potency (α4β7); range classes; read-out: α4β7 cell (Hu) IC50. The method in brief:
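Washed RPMI 8866 cells (200,000/well) in DMEM with 0.1% BSA, 10 mM HEPES pH 7, 1 mM MnCl2 adhered to rh MAdCAM-1/Fc-coated wells with serially diluted peptides, 30-45 min at 37 °C. After three washes, bound cells quantified by MTT, A570, cell-free background subtracted for dose response.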

Setting [2] is: simulated intestinal fluid (SIF) with porcine pancreatin, > means experiment was stopped at that time and half life was not reached, read-out: Stabilty SIF t1/2.
[3] abbreviates: simulated intestinal fluid (SIF) with porcine pancreatin, alone or in parentheses after >360, read-out: Stabilty SIF t1/2, in hr (converted).

pIC50: −log10 of the molar value. Read-outs that look alike come from different tables or passages of the source. Numbered stars: 1 amine (or outer) side, 2 acyl side, 3 side chain; on linkers, the order of the positions; unused ones are H or OH. Bridge positions count the residues as written; N and C are the ends. Square brackets hold non-standard residues; d marks the D form. Peptide text beside a SMILES is read from it. I, II: the chains in the order shown. Phe(4-CF3) = N[C@@H](Cc1ccc(C(F)(F)F)cc1)C(=O)O; Phe(4-tBu) = CC(C)(C)c1ccc(C[C@H](N)C(=O)O)cc1; Diglycolyl = O=C(COCC(=O)[*:2])[*:1]; NMeR = CN[C@@H](CCCNC(=N)N)C(=O)O; β3hE = N[C@@H](CCC(=O)O)CC(=O)O; NMeK = CN[C@@H](CCCCN)C(=O)O; Pen = CC(C)(S)[C@H](N)C(=O)O

α4β7, sequence (P13612 34-1032): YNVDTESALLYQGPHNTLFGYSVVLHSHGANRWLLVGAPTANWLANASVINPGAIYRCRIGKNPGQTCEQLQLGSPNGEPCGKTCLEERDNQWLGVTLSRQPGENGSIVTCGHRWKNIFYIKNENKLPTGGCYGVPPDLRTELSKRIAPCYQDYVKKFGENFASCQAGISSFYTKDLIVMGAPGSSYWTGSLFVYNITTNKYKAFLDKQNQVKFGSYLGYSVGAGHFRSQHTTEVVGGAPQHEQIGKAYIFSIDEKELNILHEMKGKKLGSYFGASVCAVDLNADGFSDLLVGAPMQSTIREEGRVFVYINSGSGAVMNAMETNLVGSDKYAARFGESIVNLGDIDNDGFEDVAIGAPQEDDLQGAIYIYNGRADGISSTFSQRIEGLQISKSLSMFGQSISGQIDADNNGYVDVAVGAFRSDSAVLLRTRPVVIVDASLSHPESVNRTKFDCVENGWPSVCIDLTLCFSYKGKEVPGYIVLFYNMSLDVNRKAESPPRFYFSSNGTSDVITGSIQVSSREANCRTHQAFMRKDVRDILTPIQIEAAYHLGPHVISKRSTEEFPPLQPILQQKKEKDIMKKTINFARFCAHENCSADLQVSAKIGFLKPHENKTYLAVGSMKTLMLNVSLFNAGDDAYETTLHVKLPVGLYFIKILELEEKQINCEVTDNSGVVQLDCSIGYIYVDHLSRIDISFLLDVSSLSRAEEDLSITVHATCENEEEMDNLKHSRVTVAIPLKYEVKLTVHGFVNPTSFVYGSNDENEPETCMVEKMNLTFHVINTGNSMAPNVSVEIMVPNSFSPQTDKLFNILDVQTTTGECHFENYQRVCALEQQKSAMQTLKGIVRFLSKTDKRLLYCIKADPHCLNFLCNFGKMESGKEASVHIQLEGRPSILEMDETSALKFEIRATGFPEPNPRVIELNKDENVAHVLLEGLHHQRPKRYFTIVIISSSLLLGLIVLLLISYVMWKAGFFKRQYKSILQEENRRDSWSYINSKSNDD
α4β7, sequence (P26010 20-798): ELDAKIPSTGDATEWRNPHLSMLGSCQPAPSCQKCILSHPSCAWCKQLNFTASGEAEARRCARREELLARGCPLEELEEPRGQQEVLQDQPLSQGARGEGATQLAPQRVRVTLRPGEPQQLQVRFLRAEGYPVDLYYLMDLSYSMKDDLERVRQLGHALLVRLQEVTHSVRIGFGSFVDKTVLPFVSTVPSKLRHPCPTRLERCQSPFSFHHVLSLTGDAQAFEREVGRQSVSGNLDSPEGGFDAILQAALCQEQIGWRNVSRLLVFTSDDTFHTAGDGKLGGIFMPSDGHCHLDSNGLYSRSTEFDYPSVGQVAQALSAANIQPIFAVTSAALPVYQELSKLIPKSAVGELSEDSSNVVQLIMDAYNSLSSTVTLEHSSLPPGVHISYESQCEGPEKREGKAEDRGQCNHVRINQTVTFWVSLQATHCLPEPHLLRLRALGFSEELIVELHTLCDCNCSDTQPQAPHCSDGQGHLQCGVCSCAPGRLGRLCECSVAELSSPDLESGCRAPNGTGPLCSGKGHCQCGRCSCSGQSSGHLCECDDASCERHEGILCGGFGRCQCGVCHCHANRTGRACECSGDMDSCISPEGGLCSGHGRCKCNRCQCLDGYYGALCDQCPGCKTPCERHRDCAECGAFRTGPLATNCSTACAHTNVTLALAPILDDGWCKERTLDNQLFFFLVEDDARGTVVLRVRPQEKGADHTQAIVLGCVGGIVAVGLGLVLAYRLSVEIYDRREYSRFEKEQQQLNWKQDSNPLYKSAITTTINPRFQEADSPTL

As to `CC(=O)N[C@@H]1C(=O)N(C)[C@@H](CCCNC(=N)N)C(=O)N[C@@H](CO)C(=O)N[C@@H](CC(=O)O)C(=O)N[C@@H]([C@@H](C)O)C(=O)N[C@@H](CC(C)C)C(=O)N[C@H](C(=O)N[C@@H](Cc2ccc(C(C)(C)C)cc2)C(=O)N[C@@H](CCC(=O)O)CC(=O)N[C@H](CCCCNC(=O)CN(CC(=O)NCCCC[C@@H](NC(=O)C[C@H](CCC(=O)O)NC(=O)[C@H](Cc2ccc(C(C)(C)C)cc2)NC(=O)[C@H]2NC(=O)[C@H](CC(C)C)NC(=O)[C@H]([C@@H](C)O)NC(=O)[C@H](CC(=O)O)NC(=O)[C@H](CO)NC(=O)[C@H](CCCNC(=N)N)N(C)C(=O)[C@@H](NC(C)=O)C(C)(C)SSC2(C)C)C(N)=O)C(=O)CCNC(=O)CCCCCC2(C)C(=CC=CC=CC3=[N+](CCCS(=O)(=O)[O-])c4ccc(S(=O)(=O)O)cc4C3(C)C)N(CCCS(=O)(=O)O)c3ccc(S(=O)(=O)O)cc32)C(N)=O)C(C)(C)SSC1(C)C` (single isomer, unassigned) [compound 183], the half-life at 22 μM is more than 3 h in data set [1] (setting [2]) and 7.77 h in data set [1] (simulated intestinal fluid (SIF) with porcine pancreatin, in parentheses after >180, read-out: Stabilty SIF t1/2, value in parentheses).

For the compound `CC(=O)N[C@@H]1C(=O)N(C)[C@@H](CCCNC(=N)N)C(=O)N[C@@H](CO)C(=O)N[C@@H](CC(=O)O)C(=O)N[C@@H]([C@@H](C)O)C(=O)N[C@@H](CC(C)C)C(=O)N[C@H](C(=O)N[C@@H](Cc2c[nH]c3ccccc23)C(=O)N[C@@H](CCC(=O)O)CC(=O)N[C@H](CCCCNC(=O)COCC(=O)NCCCC[C@@H](NC(=O)C[C@H](CCC(=O)O)NC(=O)[C@H](Cc2c[nH]c3ccccc23)NC(=O)[C@H]2NC(=O)[C@H](CC(C)C)NC(=O)[C@H]([C@@H](C)O)NC(=O)[C@H](CC(=O)O)NC(=O)[C@H](CO)NC(=O)[C@H](CCCNC(=N)N)N(C)C(=O)[C@@H](NC(C)=O)C(C)(C)SSC2(C)C)C(N)=O)C(N)=O)C(C)(C)SSC1(C)C` [compound 1] (I: Ac-[Pen][NMeR]SDTL[Pen]W[β3hE][dK]-NH2 / II: Ac-[Pen][NMeR]SDTL[Pen]W[β3hE][dK]-NH2; disulfide I:1-I:7, II:1-II:7; linker I:10-II:10 via Diglycolyl), in data set [1] (simulated intestinal fluid (SIF) with 1% porcine pancreatin, > means experiment was stopped at that time and half life was not reached, read-out: Stabilty SIF t1/2), the half-life at 22 μM is more than 3 h. The pIC50 on α4β7 is 7.00 to 7.30.

As for `CC(=O)N[C@@H]1C(=O)N(C)[C@@H](CCCNC(=N)N)C(=O)N[C@@H](CO)C(=O)N[C@@H](CC(=O)O)C(=O)N[C@@H]([C@@H](C)O)C(=O)N[C@@H](CC(C)C)C(=O)N[C@H](C(=O)N[C@@H](Cc2ccc(C(F)(F)F)cc2)C(=O)N[C@H](CCC(=O)O)C(=O)N[C@H](CCCCNC(=O)COCC(=O)NCCCC[C@@H](NC(=O)[C@@H](CCC(=O)O)NC(=O)[C@H](Cc2ccc(C(F)(F)F)cc2)NC(=O)[C@H]2NC(=O)[C@H](CC(C)C)NC(=O)[C@H]([C@@H](C)O)NC(=O)[C@H](CC(=O)O)NC(=O)[C@H](CO)NC(=O)[C@H](CCCNC(=N)N)N(C)C(=O)[C@@H](NC(C)=O)C(C)(C)SSC2(C)C)C(N)=O)C(N)=O)C(C)(C)SSC1(C)C` [compound 3] (I: Ac-[Pen][NMeR]SDTL[Pen][Phe(4-CF3)][dE][dK]-NH2 / II: Ac-[Pen][NMeR]SDTL[Pen][Phe(4-CF3)][dE][dK]-NH2; disulfide I:1-I:7, II:1-II:7; linker I:10-II:10 via Diglycolyl), the half-life at 22 μM in data set [1] (setting [2]) is more than 3 h.

In the case of `CC(=O)N[C@@H]1CCCCNC(=O)COCC(=O)NCCCC[C@@H](NC(C)=O)C(=O)N[C@H]2CSSC[C@H](NC(=O)[C@H](CC(C)C)NC(=O)[C@H]([C@@H](C)O)NC(=O)[C@H](CC(=O)O)NC(=O)[C@H](CO)NC(=O)[C@H](CCCNC(=N)N)N(C)C2=O)C(=O)N[C@@H](Cc2c[nH]c3ccccc23)C(=O)N[C@@H](C(N)=O)CCCCNC(=O)COCC(=O)NCCCC[C@H](C(N)=O)NC(=O)[C@H](Cc2c[nH]c3ccccc23)NC(=O)[C@@H]2CSSC[C@H](NC1=O)C(=O)N(C)[C@@H](CCCNC(=N)N)C(=O)N[C@@H](CO)C(=O)N[C@@H](CC(=O)O)C(=O)N[C@@H]([C@@H](C)O)C(=O)N[C@@H](CC(C)C)C(=O)N2` [compound 5] (I: Ac-[dK]C[NMeR]SDTLCW[dK]-NH2 / II: Ac-[dK]C[NMeR]SDTLCW[dK]-NH2; linker I:1-II:1, I:10-II:10 via Diglycolyl; disulfide I:2-I:8, II:2-II:8), the half-life at 22 μM in data set [1] (setting [2]) is 0.1 h.

Turning to `CC(=O)N[C@@H]1C(=O)N(C)[C@@H](CCCNC(=N)N)C(=O)N[C@@H](CO)C(=O)N[C@@H](CC(=O)O)C(=O)N[C@@H]([C@@H](C)O)C(=O)N[C@@H](CC(C)C)C(=O)N[C@H](C(=O)N[C@@H](Cc2ccc(C(C)(C)C)cc2)C(=O)N[C@@H](CCC(=O)O)C(=O)N[C@H](CCCCNC(=O)COCC(=O)NCCCC[C@@H](NC(=O)[C@H](CCC(=O)O)NC(=O)[C@H](Cc2ccc(C(C)(C)C)cc2)NC(=O)[C@H]2NC(=O)[C@H](CC(C)C)NC(=O)[C@H]([C@@H](C)O)NC(=O)[C@H](CC(=O)O)NC(=O)[C@H](CO)NC(=O)[C@H](CCCNC(=N)N)N(C)C(=O)[C@@H](NC(C)=O)C(C)(C)SSC2(C)C)C(N)=O)C(N)=O)C(C)(C)SSC1(C)C` [compound 131] (I: Ac-[Pen][NMeR]SDTL[Pen][Phe(4-tBu)]E[dK]-NH2 / II: Ac-[Pen][NMeR]SDTL[Pen][Phe(4-tBu)]E[dK]-NH2; disulfide I:1-I:7, II:1-II:7; linker I:10-II:10 via Diglycolyl), the half-life at 22 μM in data set [1] (setting [2]) is more than 6 h; in data set [1] (setting [3]), 9 h.

For the compound `CC(=O)N[C@@H]1C(=O)N(C)[C@@H](CCCNC(=N)N)C(=O)N[C@@H](CO)C(=O)N[C@@H](CC(=O)O)C(=O)N[C@@H]([C@@H](C)O)C(=O)N[C@@H](CC(C)C)C(=O)N[C@H](C(=O)N[C@@H](Cc2ccc(C(C)(C)C)cc2)C(=O)N[C@@H](CCC(=O)O)C(=O)N(C)[C@@H](CCCCNC(=O)COCC(=O)NCCCC[C@@H](C(N)=O)N(C)C(=O)[C@H](CCC(=O)O)NC(=O)[C@H](Cc2ccc(C(C)(C)C)cc2)NC(=O)[C@H]2NC(=O)[C@H](CC(C)C)NC(=O)[C@H]([C@@H](C)O)NC(=O)[C@H](CC(=O)O)NC(=O)[C@H](CO)NC(=O)[C@H](CCCNC(=N)N)N(C)C(=O)[C@@H](NC(C)=O)C(C)(C)SSC2(C)C)C(N)=O)C(C)(C)SSC1(C)C` [compound 133] (I: Ac-[Pen][NMeR]SDTL[Pen][Phe(4-tBu)]E[NMeK]-NH2 / II: Ac-[Pen][NMeR]SDTL[Pen][Phe(4-tBu)]E[NMeK]-NH2; disulfide I:1-I:7, II:1-II:7; linker I:10-II:10 via Diglycolyl), the half-life at 22 μM is more than 6 h in data set [1] (setting [2]) and 11 h in data set [1] (setting [3]).

`CC(=O)N[C@@H]1C(=O)N(C)[C@@H](CCCNC(=N)N)C(=O)N[C@@H](CO)C(=O)N[C@@H](CC(=O)O)C(=O)N[C@@H]([C@@H](C)O)C(=O)N[C@@H](CC(C)C)C(=O)N[C@H](C(=O)N[C@@H](Cc2ccc(C(C)(C)C)cc2)C(=O)N[C@@H](CCC(=O)O)CC(=O)N[C@H](CCCCNC(=O)CN(CC(=O)NCCCC[C@@H](NC(=O)C[C@H](CCC(=O)O)NC(=O)[C@H](Cc2ccc(C(C)(C)C)cc2)NC(=O)[C@H]2NC(=O)[C@H](CC(C)C)NC(=O)[C@H]([C@@H](C)O)NC(=O)[C@H](CC(=O)O)NC(=O)[C@H](CO)NC(=O)[C@H](CCCNC(=N)N)N(C)C(=O)[C@@H](NC(C)=O)C(C)(C)SSC2(C)C)C(N)=O)C(=O)CCNC(=O)c2ccc(-c3c4ccc(=N)c(S(=O)(=O)O)c-4oc4c(S(=O)(=O)O)c(N)ccc34)c(C(=O)O)c2)C(N)=O)C(C)(C)SSC1(C)C` [compound 182]: in data set [1] (setting [2]), the half-life at 22 μM was more than 3 h.

Take `CC(=O)N[C@@H]1C(=O)N(C)[C@@H](CCCNC(=N)N)C(=O)N[C@@H](CO)C(=O)N[C@@H](CC(=O)O)C(=O)N[C@@H](CC(=O)O)C(=O)N[C@@H](CC(C)C)C(=O)N[C@H](C(=O)N[C@@H](Cc2ccc(C(C)(C)C)cc2)C(=O)N[C@@H](CCC(=O)O)CC(=O)N[C@H](CCCCNC(=O)CN(CC(=O)NCCCC[C@@H](NC(=O)C[C@H](CCC(=O)O)NC(=O)[C@H](Cc2ccc(C(C)(C)C)cc2)NC(=O)[C@H]2NC(=O)[C@H](CC(C)C)NC(=O)[C@H](CC(=O)O)NC(=O)[C@H](CC(=O)O)NC(=O)[C@H](CO)NC(=O)[C@H](CCCNC(=N)N)N(C)C(=O)[C@@H](NC(C)=O)C(C)(C)SSC2(C)C)C(N)=O)C(=O)CCN)C(N)=O)C(C)(C)SSC1(C)C` [compound 191]: the pIC50 on α4β7 was 4.00 to 5.00.

Usually pIC50 stands for the IC50 on a negative log10 scale, so that one unit is a factor of ten.
